Test results taken from patent US10100056B2, “SHIP1 modulators and methods related thereto” (Aquinox Pharmaceuticals (Canada) Inc., priority 2013, dated 2018).

Each compound was assayed on Akt phosphorylation in Molt-4 (PTEN-/SHIP1+) cells (assay: Akt phosphorylation in lymphocytes (Western blot, IGF-1 stimulated)). Settings: 30 μM; Molt-4 (SHIP1+) cells, IGF-1 100 ng/mL.
Format: cell-based
Parameters: key: +: inhibits Akt phosphorylation at 30 μM; −: no effect on Akt phosphorylation at 30 μM
Experimental: Molt-4 (PTEN-/SHIP1+) cells are starved in serum free RPMI for overnight. In a 15 mL conical tube, 2-3 million serum starved cells (1 million cells per mL) are treated with various concentrations of test compound ([…]) for 30 min at 37° C. followed by stimulation with 100 ng/mL of IGF-1 for 1 hour at 37° C. After stimulation, cells are washed once with ice-cold DPBS and lysed with Lysis Buffer (20 mM Tris-HCl, pH 7.5, 140 mM NaCl, 1% NP-40, Complete Mini Protease Inhibitor Cocktail, 10 mM NaF, 1 mM Na3VO4, 1 mM β-glycerolphosphate) on ice for 30 min with vortexing every 10 min. Samples are then centrifuged at 13,000 rpm for 20 min, and supernatants are collected as total cell lysate samples. Protein concentration is determined using bicinchonic acid assay, and about 15 μg of total protein from each sample is loaded and separated on a 4-12% Tris-Glycine gel. After SDS-PAGE, proteins are transferred from the gel to a nitrocellulose membrane. The membrane is blocked in 5% BSA in PBS containing 0.1% Tween-20 (PBS-T) for 1 hour at room temperature before probing with primary antibodies for overnight at 4° C. The following antibodies are used: mouse anti-SHIP1 (1:500 dilution; Santa Cruz, Calif., USA), rabbit anti-phospho-Akt (Ser473) (1:1000 dilution; Cell Signaling Technologies, MA, USA), rabbit anti-Akt (1:1000; Cell Signaling Technologies, MA, USA), and rabbit anti-actin (1:2000; Cell Signaling Technologies, MA, USA). The membrane is then incubated with goat anti-rabbit or anti-mouse secondary antibodies (1:3000) for 1 hour at room temperature. Target proteins on the membrane are detected with ECL solution and exposed on a film.
In the case of `C=C1CC[C@H]2[C@H](CNC(=S)NC)[C@@H]([C@@]3(C)CC[C@H](O)C[C@@H]3CO)CC[C@]12C` [Cpd. No. 85, 1-(((3aS,4R,5S,7aS)-5-((1R,2S,4S)-4-hydroxy-2-(hydroxymethyl)-1-methylcyclohexyl)-7a-methyl-1-methyleneoctahydro-1H-inden-4-yl)methyl)-3-methylthiourea], the “Molt-4 (SHIP+): inhibition of Akt phosphorylation” value (“Molt-4 (SHIP+): inhibition” for short) is reported as “+”. With `C=C1CC[C@H]2[C@H](CNC(=O)C(F)(F)F)[C@@H]([C@@]3(C)CC[C@H](O)C[C@@H]3CO)CC[C@]12C` [Cpd. No. 86, 2,2,2-trifluoro-N-(((3aS,4R,5S,7aS)-5-((1R,2S,4S)-4-hydroxy-2-(hydroxymethyl)-1-methylcyclohexyl)-7a-methyl-1-methyleneoctahydro-1H-inden-4-yl)methyl)acetamide] the “Molt-4 (SHIP+): inhibition” value was “+”. With `C=C1CC[C@H]2[C@H](CC#N)[C@@H]([C@@]3(C)CC[C@H](O)C[C@@H]3CO)CC[C@]12C` [Cpd. No. 87, 2-((3aS,4R,5S,7aS)-5-((1R,2S,4S)-4-hydroxy-2-(hydroxymethyl)-1-methylcyclohexyl)-7a-methyl-1-methyleneoctahydro-1H-inden-4-yl)acetonitrile] the “Molt-4 (SHIP+): inhibition” value was “+”. For `C=C1CC[C@H]2[C@H](CNOC)[C@@H]([C@@]3(C)CC[C@H](O)C[C@@H]3CO)CC[C@]12C` [Cpd. No. 88, (1S,3S,4R)-3-(hydroxymethyl)-4-((3aS,4R,5S,7aS)-4-((methoxyamino)methyl)-7a-methyl-1-methyleneoctahydro-1H-inden-5-yl)-4-methylcyclohexanol], the “Molt-4 (SHIP+): inhibition” value was “+”. In the case of `C=C1CC[C@H]2[C@H](CNC#N)[C@@H]([C@@]3(C)CC[C@H](O)C[C@@H]3CO)CC[C@]12C` [Cpd. No. 89, N-(((3aS,4R,5S,7aS)-5-((1R,2S,4S)-4-hydroxy-2-(hydroxymethyl)-1-methylcyclohexyl)-7a-methyl-1-methyleneoctahydro-1H-inden-4-yl)methyl)cyanamide], the “Molt-4 (SHIP+): inhibition” value is reported as “+”. For `C=C1CC[C@H]2[C@H](CC(N)=O)[C@@H]([C@@]3(C)CC[C@H](O)C[C@@H]3CO)CC[C@]12C` [Cpd. No. 90, 2-((3aS,4R,5S,7aS)-5-((1R,2S,4S)-4-hydroxy-2-(hydroxymethyl)-1-methylcyclohexyl)-7a-methyl-1-methyleneoctahydro-1H-inden-4-yl)acetamide], the “Molt-4 (SHIP+): inhibition” value was “+”. With `C=C1CC[C@H]2[C@H](O)[C@@H]([C@@]3(C)CC[C@H](O)C[C@@H]3CCC#N)CC[C@]12C` [Cpd. No. 94, 3-((1S,2S,5S)-5-hydroxy-2-((3aR,4R,5R,7aS)-4-hydroxy-7a-methyl-1-methyleneoctahydro-1H-inden-5-yl)-2-methylcyclohexyl)propanenitrile] the “Molt-4 (SHIP+): inhibition” value was “+”. In the case of `C=C1CC[C@H]2[C@H](O)[C@@H]([C@@]3(C)CC[C@H](O)C[C@@H]3CCC(N)=O)CC[C@]12C` [Cpd. No. 95, 3-((1S,2S,5S)-5-hydroxy-2-((3aR,4R,5R,7aS)-4-hydroxy-7a-methyl-1-methyleneoctahydro-1H-inden-5-yl)-2-methylcyclohexyl)propanamide], the “Molt-4 (SHIP+): inhibition” value is reported as “+”. For `C=C1CC[C@H]2[C@H](O)[C@@H]([C@@]3(C)CC[C@H](O)C[C@H]3CCC(=O)O)CC[C@]12C` [Cpd. No. 97, 3-((1R,2S,5S)-5-hydroxy-2-((3aR,4R,5R,7aS)-4-hydroxy-7a-methyl-1-methyleneoctahydro-1H-inden-5-yl)-2-methylcyclohexyl)propanoic acid], the “Molt-4 (SHIP+): inhibition” value was “+”. With `C=C1CC[C@H]2[C@H](C(=O)O)[C@@H]([C@@]3(C)CC[C@H](O)C[C@H]3CO)CC[C@]12C` [Cpd. No. 98, (3aS,4R,5S,7aS)-5-((1R,2R,4S)-4-hydroxy-2-(hydroxymethyl)-1-methylcyclohexyl)-7a-methyl-1-methyleneoctahydro-1H-indene-4-carboxylic acid] the “Molt-4 (SHIP+): inhibition” value was “+”.

Each compound was assayed against T1, His-hSHIP1 enzyme (Homo sapiens, UniProt Q92835) (assay: His-hSHIP1 activity (phosphatase assay, IP4 substrate, Biomol Green)). Settings: second approach: ratio of initial velocities IP4 25/250 μM compared with reference compound; values without asterisk.
T1 construct: His
T1 sequence (Q92835 1-1189): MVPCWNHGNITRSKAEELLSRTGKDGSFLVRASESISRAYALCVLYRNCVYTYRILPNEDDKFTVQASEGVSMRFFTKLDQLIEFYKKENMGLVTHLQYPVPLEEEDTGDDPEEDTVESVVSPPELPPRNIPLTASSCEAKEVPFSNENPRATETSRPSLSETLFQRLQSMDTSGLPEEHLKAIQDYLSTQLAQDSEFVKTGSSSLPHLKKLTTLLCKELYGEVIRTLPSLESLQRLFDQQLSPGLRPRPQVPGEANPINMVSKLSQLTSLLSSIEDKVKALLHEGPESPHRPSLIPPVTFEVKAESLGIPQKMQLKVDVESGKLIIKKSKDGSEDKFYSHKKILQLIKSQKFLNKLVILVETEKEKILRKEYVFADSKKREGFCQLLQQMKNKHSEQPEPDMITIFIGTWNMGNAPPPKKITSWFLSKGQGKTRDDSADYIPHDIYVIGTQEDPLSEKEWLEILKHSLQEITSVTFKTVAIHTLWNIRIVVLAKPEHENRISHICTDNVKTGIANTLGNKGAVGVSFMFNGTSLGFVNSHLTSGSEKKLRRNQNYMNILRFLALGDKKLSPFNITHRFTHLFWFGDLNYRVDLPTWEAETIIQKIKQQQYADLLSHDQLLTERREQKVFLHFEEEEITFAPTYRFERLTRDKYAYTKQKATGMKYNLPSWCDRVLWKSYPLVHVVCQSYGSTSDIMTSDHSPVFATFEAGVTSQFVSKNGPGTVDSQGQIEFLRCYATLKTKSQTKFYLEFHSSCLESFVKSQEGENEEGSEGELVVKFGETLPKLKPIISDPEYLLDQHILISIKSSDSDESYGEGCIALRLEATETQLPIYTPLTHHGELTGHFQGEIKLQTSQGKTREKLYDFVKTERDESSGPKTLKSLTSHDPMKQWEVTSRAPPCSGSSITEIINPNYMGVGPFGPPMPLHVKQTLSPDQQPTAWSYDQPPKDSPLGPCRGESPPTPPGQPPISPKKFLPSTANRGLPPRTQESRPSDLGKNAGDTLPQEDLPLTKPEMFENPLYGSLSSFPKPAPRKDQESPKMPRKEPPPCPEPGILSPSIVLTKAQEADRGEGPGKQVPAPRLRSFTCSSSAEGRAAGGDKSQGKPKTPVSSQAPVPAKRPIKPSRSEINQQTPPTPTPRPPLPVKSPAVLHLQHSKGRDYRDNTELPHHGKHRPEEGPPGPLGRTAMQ
Format: biochemical
Parameters: key to Scoring, Approach 2 (Initial velocity Ratio): +++: higher than reference or reference - 15%; ++: reference - 16% to reference - 30%; +: reference - 31% or lower; −: inhibitor
Experimental: Test compounds are dissolved in 95% ethanol to form stock solutions. Before screening, the stock solutions are diluted with Phosphatase Assay Buffer (20 mM Tris-HCL, 10 mM MgCl2 pH 7.5, 0.02% Tween 20) to form working assay solutions that contain 10% ethanol. The assay is carried out on 96-well microtiter plates using a modified procedure of that reported by Ong et al., Blood 110, 1942-1949, 2007 and Yang et al., Org Lett 7, 1073-1076, 2005, both of which references are incorporated herein by reference in their entirety.
Data were generated by one of two variant methods. Test compounds are screened by one of two approaches described as follows. In the first approach, each reaction contains 5 μL of His-hSHIP1 enzyme (5-20 ng), 10 μL of the substrate, 1,3,4,5-inositol tetrakisphosphate (IP4; 50 μM final), 5 μL of Phosphatase Assay Buffer, and 5 µL of test compound at various concentrations in 10% ethanol (0-300 μM final). Control blanks are also prepared by replacing His-hSHIP1 enzyme, IP4, or test compounds with Phosphatase Assay Buffer. After adding the reaction components in a 96-well microtiter plate on ice, the reaction is mixed by briefly shaking the plate vigorously. The reaction is then incubated at 37° C. for 15 min with gentle shaking followed by addition of 100 μL of Biomol Green Reagent (BIOMOL, PA, USA) to terminate the reaction. The free phosphate released from IP4 by His-hSHIP1 binds to the Biomol Green Reagent, which turns the dye to green color. After incubating the mixture for 20 min at room temperature for color development, the absorbance is read with SpectraMax Plus 96-well plate reader (Molecular Devices, Sunnyvale, Calif., USA) at a wavelength of 650 nm.
In the second approach, a master mix is prepared that contains 50 μL of His-hSHIP1 enzyme (0.4-1.6 ng/μL final), 25 μL of the substrate, IP4 (25 or 250 μM final), and 50 μL of test compound in 3.3% ethanol (100 μL final). Control blanks are also prepared by replacing His-hSHIP1 enzyme, IP4, or test compounds with Phosphate Assay Buffer. […] Each reaction component is preincubated at 37° C. for 30 min before adding to a 96-well microtiter plate. The master mix is then incubated at 37° C. At time 0, 20, and 30 min, 25 μL of the master mix is removed and transferred to a new 96-well microtiter plate, to which 100 μL of Biomol Green Reagent is added to stop the reaction. After incubating the mixture for 20 min at room temperature for color development, the absorbance is read with SpectraMax Plus 96-well plate reader at a wavelength of 650 nm. Phosphate released is plotted against time to calculate the initial velocities (i.e., slope of the graph) at each IP4 concentration. The initial velocities are baseline corrected and the ratio of initial velocities (IP425/IP4250) is calculated and used to rate the test compounds.
In the case of `CC1(C)CCC2=C1CC[C@H]([C@@]1(C)CC[C@H](O)C[C@@H]1CO)[C@H]2CNCC1CC1` [Cpd. No. 2, (1S,3S,4R)-4-((4R,5S)-4-((cyclopropylmethylamino)methyl)-1,1-dimethyl-2,3,4,5,6,7-hexahydro-1H-inden-5-yl)-3-(hydroxymethyl)-4-methylcyclohexanol], the “Scoring, Approach 2 (Initial velocity Ratio)” value is reported as “+”. With `CC(=O)NC[C@H]1C2=C(CC[C@@H]1[C@@]1(C)CC[C@H](O)C[C@@H]1CO)C(C)(C)CC2` [Cpd. No. 4, N-(((4R,5S)-5-((1R,2S,4S)-4-hydroxy-2-(hydroxymethyl)-1-methylcyclohexyl)-1,1-dimethyl-2,3,4,5,6,7-hexahydro-1H-inden-4-yl)methyl)acetamide] the “Scoring, Approach 2 (Initial velocity Ratio)” value was “+”.
